A short description of this series: Log of liquid dish neat product liquid-air partition coefficient. As to conditions: for Log of liquid dish neat product liquid-air partition coefficient (Comment Code K/L): code letter within the Comment Code cell. The class given is physicochemical.

In the case of `CCC(=O)OC1CC2CCC1(C)C2(C)C` (stereo not drawn) [Material 228], the “Log of liquid dish neat product liquid-air partition coefficient (Comment Code K/L)” value (“Log … (Comment Code K/L)” below) is “K (Log of liquid dish neat product liquid-air partition coefficient greater than or equal to 7)”.
For the compound `CC(C)C(=O)OC1CC2CCC1(C)C2(C)C` (stereo not drawn) [Material 229], the “Comment Code: Log of liquid dish neat product liquid-air partition coefficient” value (from here on “Comment Code: Log”) is “K (Log of liquid dish neat product liquid-air partition coefficient greater than or equal to 7)” and the “Log … (Comment Code K/L)” value is recorded as “K (Log of liquid dish neat product liquid-air partition coefficient greater than or equal to 7)”.
With `CC1C2CC(CC2C2CCC(O)CC2)C1(C)C` (stereo not drawn) [Material 230], the “Comment Code: Log” value is “K (Log of liquid dish neat product liquid-air partition coefficient greater than or equal to 7)” and the “Log … (Comment Code K/L)” value is on record as “K (Log of liquid dish neat product liquid-air partition coefficient greater than or equal to 7)”.
`C=CCCCCCCCCC(=O)OCCC(C)C` [Material 234]: the “Log … (Comment Code K/L)” value is recorded as “K (Log of liquid dish neat product liquid-air partition coefficient greater than or equal to 7)”.
In the case of `CCCCCCCC(=O)OCCC(C)C` [Material 237], the “Comment Code: Log” value was “K (Log of liquid dish neat product liquid-air partition coefficient greater than or equal to 7)”.
Take `CCCCCCCCCCCC(=O)OCCC(C)C` [Material 238]: the “Log … (Comment Code K/L)” value is given as “K (Log of liquid dish neat product liquid-air partition coefficient greater than or equal to 7)”.
As to `c1ccc2c(c1)CC1COCOC21` (stereo not drawn) [Material 247], the “Log … (Comment Code K/L)” value is “K (Log of liquid dish neat product liquid-air partition coefficient greater than or equal to 7)”.
As for `CC1(C)C2=C(CO)CCC(C)(C)C23CCC1C3` (stereo not drawn) [Material 248], the “Comment Code: Log” value is reported as “K (Log of liquid dish neat product liquid-air partition coefficient greater than or equal to 7)”.
With `CC(CCO)CCCC(C)(C)O` (stereo not drawn) [Material 249], the “Log … (Comment Code K/L)” value is given as “K (Log of liquid dish neat product liquid-air partition coefficient greater than or equal to 7)”.
Same read-out and setting: for `CC(CO)C1CCCCCCCCCCC1` (stereo not drawn) [Material 252] the value was “K (Log of liquid dish neat product liquid-air partition coefficient greater than or equal to 7)”; for `OCCCc1ccccc1` [Material 254], “K (Log of liquid dish neat product liquid-air partition coefficient greater than or equal to 7)”.
Consider `O=C(O)CCc1ccccc1` [Material 255], for which the “Comment Code: Log” value was “K (Log of liquid dish neat product liquid-air partition coefficient greater than or equal to 7)”.
As for `COC(OC)C(C)c1ccccc1` (stereo not drawn) [Material 256], the “Log … (Comment Code K/L)” value is given as “K (Log of liquid dish neat product liquid-air partition coefficient greater than or equal to 7)”.
On the same count and under the same terms, for `CCC1=C(O)C(=O)C(C)O1` (stereo not drawn) [Material 259] the value was “K (Log of liquid dish neat product liquid-air partition coefficient greater than or equal to 7)”.
As for `CC1(C)CCc2ccc(CCC=O)cc21` [Material 260], the “Comment Code: Log” value is “K (Log of liquid dish neat product liquid-air partition coefficient greater than or equal to 7)” and the “Log … (Comment Code K/L)” value was “K (Log of liquid dish neat product liquid-air partition coefficient greater than or equal to 7)”.
Consider `CC1(C)CCc2ccc(CCC=O)cc21` [Material 261], for which the “Comment Code: Log” value was “K (Log of liquid dish neat product liquid-air partition coefficient greater than or equal to 7)” and the “Log … (Comment Code K/L)” value is recorded as “K (Log of liquid dish neat product liquid-air partition coefficient greater than or equal to 7)”.
Consider `CCCCCCCC(=O)OCCCCCC` [Material 263], for which the “Log … (Comment Code K/L)” value is listed as “K (Log of liquid dish neat product liquid-air partition coefficient greater than or equal to 7)”.
Still for that read-out and setting: then `CCCCCCOC(=O)c1ccccc1` [Material 271], with “K (Log of liquid dish neat product liquid-air partition coefficient greater than or equal to 7)”; and `CC=C(C)C(=O)OCCC=CCC` [Material 274], with “K (Log of liquid dish neat product liquid-air partition coefficient greater than or equal to 7)”.
In the case of `CCCCCCOC(=O)c1ccco1` [Material 275], the “Comment Code: Log” value is given as “K (Log of liquid dish neat product liquid-air partition coefficient greater than or equal to 7)”.
`O=C1CCCCCCCCCCCCCCCO1` [Material 277]: the “Log … (Comment Code K/L)” value is on record as “K (Log of liquid dish neat product liquid-air partition coefficient greater than or equal to 7)”.
As for `CCOC(=O)C1C2C=CC(C2)C1C(C)C` (stereo not drawn) [Material 280], the “Log … (Comment Code K/L)” value is “K (Log of liquid dish neat product liquid-air partition coefficient greater than or equal to 7)”.
As to `CC(=O)OC1CC2CC1C1CC=CC21` (stereo not drawn) [Material 281], the “Comment Code: Log” value was “K (Log of liquid dish neat product liquid-air partition coefficient greater than or equal to 7)” and the “Log … (Comment Code K/L)” value was “K (Log of liquid dish neat product liquid-air partition coefficient greater than or equal to 7)”.
For the compound `O=Cc1ccc2c(c1)OCO2` [Material 287], the “Comment Code: Log” value is “K (Log of liquid dish neat product liquid-air partition coefficient greater than or equal to 7)”.
Regarding `CC(C=O)Cc1ccc2c(c1)OCO2` (stereo not drawn) [Material 288], the “Log … (Comment Code K/L)” value is reported as “K (Log of liquid dish neat product liquid-air partition coefficient greater than or equal to 7)”.
In the case of `O=C1CCCCCCCCCC/C=C/CCO1` [Material 289], the “Log … (Comment Code K/L)” value is reported as “K (Log of liquid dish neat product liquid-air partition coefficient greater than or equal to 7)”.
Same read-out and setting: then `CC1CCC(C(C)(C)O)CC2=C1CCC2C` (stereo not drawn) [Material 292], with “K (Log of liquid dish neat product liquid-air partition coefficient greater than or equal to 7)”.
Same read-out and setting: then `CCC(=O)CCC1C(C)=CCCC1(C)C` (stereo not drawn) [Material 293], with “K (Log of liquid dish neat product liquid-air partition coefficient greater than or equal to 7)”; and `CCOC(=O)C1C(CC)=CCCC1(C)C` (stereo not drawn) [Material 294], with “K (Log of liquid dish neat product liquid-air partition coefficient greater than or equal to 7)”; and `CC1=CCC(=C(C)C)CCC(C)=CCC1` [Material 295], with “K (Log of liquid dish neat product liquid-air partition coefficient greater than or equal to 7)”.
`C=C1C=CC(C(C)C)CCC(C)=CCC1` (stereo not drawn) [Material 296]: the “Log … (Comment Code K/L)” value is “K (Log of liquid dish neat product liquid-air partition coefficient greater than or equal to 7)”.
For `CC(C)=CCC/C(C)=C/COC=O` [Material 306], the “Comment Code: Log” value is listed as “K (Log of liquid dish neat product liquid-air partition coefficient greater than or equal to 7)”.
With `CCC(C)C(=O)N(C)c1ccccc1` (stereo not drawn) [Material 314], the “Comment Code: Log” value is given as “K (Log of liquid dish neat product liquid-air partition coefficient greater than or equal to 7)”.
As for `CC(=O)OC1(C)CCC(=C(C)C)CC1` (stereo not drawn) [Material 317], the “Log … (Comment Code K/L)” value is recorded as “K (Log of liquid dish neat product liquid-air partition coefficient greater than or equal to 7)”.
In the case of `CC(C)=C1CCC(C)(O)CC1` (stereo not drawn) [Material 318], the “Log … (Comment Code K/L)” value is given as “K (Log of liquid dish neat product liquid-air partition coefficient greater than or equal to 7)”.
Regarding `C=C1CCCC(C)(C)C1C=CC(C)=O` (stereo not drawn) [Material 324], the “Log … (Comment Code K/L)” value is reported as “K (Log of liquid dish neat product liquid-air partition coefficient greater than or equal to 7)”.
Take `CC1=C2CC(C(C)(C)O)CCC2(C)CCC1` (stereo not drawn) [Material 329]: the “Comment Code: Log” value is given as “K (Log of liquid dish neat product liquid-air partition coefficient greater than or equal to 7)” and the “Log … (Comment Code K/L)” value is “K (Log of liquid dish neat product liquid-air partition coefficient greater than or equal to 7)”.
Regarding `CCCCCCCCC1CCC(=O)O1` (stereo not drawn) [Material 330], the “Log … (Comment Code K/L)” value was “K (Log of liquid dish neat product liquid-air partition coefficient greater than or equal to 7)”.
The same measure, in the same setting: then `C=C1CCCC(C)(C)C1C(=O)C=CC` (stereo not drawn) [Material 331], with “K (Log of liquid dish neat product liquid-air partition coefficient greater than or equal to 7)”.
The same measure, in the same setting: for `C=CCCC(=O)C1CCCC(C)(C)C1` (stereo not drawn) [Material 334] the value was “K (Log of liquid dish neat product liquid-air partition coefficient greater than or equal to 7)”.
`CC1COCc2cc3c(cc21)C(C)(C)C(C)C3(C)C` (stereo not drawn) [Material 335]: the “Comment Code: Log” value was “K (Log of liquid dish neat product liquid-air partition coefficient greater than or equal to 7)” and the “Log … (Comment Code K/L)” value is recorded as “K (Log of liquid dish neat product liquid-air partition coefficient greater than or equal to 7)”.
As to `CCCCCCCC(=O)OCc1ccco1` [Material 336], the “Log … (Comment Code K/L)” value is recorded as “K (Log of liquid dish neat product liquid-air partition coefficient greater than or equal to 7)”.
For the compound `CCCCCC(=O)OCc1ccco1` [Material 338], the “Log … (Comment Code K/L)” value was “K (Log of liquid dish neat product liquid-air partition coefficient greater than or equal to 7)”.
Still for that read-out and setting: then `CCCCCCC(=O)OCc1ccco1` [Material 339], with “K (Log of liquid dish neat product liquid-air partition coefficient greater than or equal to 7)”.

The record behind these values is patent US20170333591A9, “ABSORBENT ARTICLE COMPRISING MALODOR REDUCTION COMPOSITIONS” (The Procter & Gamble Company, priority 2014, published 2017).
